Measured values: patent publication US5129937A, “Pyridyloxypyrimidine derivatives, preparation process thereof, and herbicidal compositions containing the same as active ingredients” (Mitsui Toatsu Chemicals Incorporated, priority 1989, dated 1992)

Legend:
[1] = tested on: ALS (acetolactate synthase); test: ALS (Acetolactate Synthase) Inhibition Test, barnyardgrass enzyme; assay type: biochemical; conditions: enzymoreaction inhibition rate at 10 ppm (5 μg/0.5 ml)
Procedure: (§1) To determine the selectivity in enzyme level between crops and weeds, an ALS inhibition test was conducted using pea as a representative of broadleaf crops and barnyardgrass as a representative of gramineous weeds.
(§2) After seeds of pea and barnyardgrass were allowed to germinate at 25° C. for 8-14 days in a dark place, partially-purified suspensions (Suspensions A) of acetolactate syntase were separately obtained from seedlings in accordance with the method described in the literature, Plant Physiology, 75, 827-831. In a test tube, […], followed by the addition of 0.15 ml of a 20 mM K2 HPO4 solution and 0.25 ml of a reaction substrate medium which consisted of 40 mM of K2 HPO4, 40 mM of sodium pyruvate, 1 mM of TPP, 1 mM of MgCl2 and 20 μM of FAD so that 0.4 ml of a reaction solution (Solution B) was prepared. Added to 0.4 ml of Solution B was 0.1 ml of Suspension A. After the resultant mixture was shaken for 1 hour in a thermostat water bath controlled at 30° C., 50 μl of 6N sulfuric acid were added to terminate the reaction.
(§3) Next, the reaction-terminated liquid mixture was transferred into a thermostat water bath controlled at 60° C. and was heated for 15 minutes. Thereafter, 0.5 ml of a 0.5% creatine solution and 0.5 ml of a 5% alkaline α-naphthol solution were added, and the resultant mixture was maintained at 60° C. for 15 minutes. As a result, the test solution developed a pink-red color. After the above operation, the absorbance of the test solution at 525 nm was measured by a spectrophotometer (Absorbance 1 of Test Compound).
(§4) On the other hand, the absorbance (Absorbance 2 of Blank) of a solution obtained by subjecting a portion of Solution B, said portion being free of the test compound, to the above operation and the absorbance (Absorbance 3 of sulfuric acid terminated) of another solution obtained by subjecting another portion of Solution B, said portion containing 50 μl of 6N sulfuric acid as a test compound, were measured at the same time. […] [formula]

[2] = tested on: Soybean (Glycine max); test: Upland Foliar Application Test, crop injury; assay type: in vivo; conditions: 30 g ai/a; foliar application at 2-3 leaf stage, emulsion; observed on the 30th day
Source text: (§5) Resin-made 1/10000-are pots were filled with the soil of an upland field. Redroot pigweed, morningglory (Ipomoea pupurea), common lambsquarters, foxtail meadow, johnsongrass, barnyardgrass, green foxtail, large crabgrass, soybean, corn and cotton were separately seeded and were allowed to germinate in a green house. When each plant grew to the stage of 2-3 leaves, an emulsion formulated from a predetermined amount of each test compound in a similar manner to the method described in Formulation Example 11 was diluted with water and then sprayed at a predetermined application rate by means of a pressure-operated ULV (ultra low volume) sprayer. The application rate was controlled at 5 l per are. Influence to the crops and weeds were observed on the 30th day after the spray of the herbicides. The results are shown in Table 4 in which the degree of damages of each test plant and the degree of injury to each crop are shown in a similar manner to Test 2.

[3] = tested on: Cotton (Gossypium indicum); test: Upland Foliar Application Test, crop injury; assay type: in vivo; conditions: 30 g ai/a; foliar application at 2-3 leaf stage, emulsion; observed on the 30th day
Source text: as §5

[4] = tested on: Corn (Zea maize); test: Upland Foliar Application Test, crop injury; assay type: in vivo; conditions: 30 g ai/a; foliar application at 2-3 leaf stage, emulsion; observed on the 30th day
Source text: as §5

[5] = tested on: ALS (acetolactate synthase); test: ALS (Acetolactate Synthase) Inhibition Test, pea enzyme; assay type: biochemical; conditions: enzymoreaction inhibition rate at 10 ppm (5 μg/0.5 ml)
Procedure: as §1, §2, §3, §4

Compound | Inhibition rate (%) Barnyardgrass [1] | Crop injury Soybean (Glycine max) [2] | Crop injury Cotton (Gossypium indicum) [3] | Crop injury Corn (Zea maize) [4] | Inhibition rate (%) Pea [5]
COc1cc(OC)nc(Oc2ccccc2C=O)n1 [B, reference compound] | 98% | 5 (0-5 (Death)) | 5 (0-5 (Death)) | 5 (0-5 (Death)) | 72%
COc1cc(OC)nc(Oc2cccnc2C2OCCCO2)n1 [Compound No. 8] | 86% | 0 (91-100 (No damages)) | 0 (91-100 (No damages)) | 0 (91-100 (No damages)) | 0%
CCCCOC(OCCCC)c1ncccc1Oc1nc(OC)cc(OC)n1 [Compound No. 4] | 94% | 0 (91-100 (No damages)) | 0 (91-100 (No damages)) | 0 (91-100 (No damages)) | 0%
COc1cc(OC)nc(Oc2cccnc2C=O)n1 [Compound No. 1, 4,6-dimethoxy-2-(2-formyl-3-pyridyloxy)pyrimidine] | 100% | 1 (71-90 (Slight damages)) | 0 (91-100 (No damages)) | 0 (91-100 (No damages)) | 3%
COc1cc(OC)nc(Oc2cccnc2C2OCC(C)O2)n1 (centres unmarked) [Compound No. 7] | 87% | 0 (91-100 (No damages)) | 0 (91-100 (No damages)) | 0 (91-100 (No damages)) | 0%
CCOC(OCC)c1ncccc1Oc1nc(OC)cc(OC)n1 [Compound No. 3, 3-(4,6-dimethoxy-2-pyrimidinyloxy)-2-pyridinecarboxaldehyde diethylacetal] | 84% | 0 (91-100 (No damages)) | 0 (91-100 (No damages)) | 0 (91-100 (No damages)) | 0%
COc1cc(OC)nc(Oc2cccnc2C(OC)OC)n1 [Compound No. 2, 3-(4.6-dimethoxy-2-pyrimidinyloxy)-2-pyridinecarboxaldehyde dimethylacetal] | 81% | 0 (91-100 (No damages)) | 0 (91-100 (No damages)) | 0 (91-100 (No damages)) | 0%
COc1cc(OC)nc(Oc2cccnc2C(OC)OC(C)C)n1 (centres unmarked) [Compound No. 5, 3-(4.6-dimethoxy-2-pyrimidinyloxy)-2-pyridinecarboxaldehyde isopropylmethylacetal] | 100% | 0 (91-100 (No damages)) | 0 (91-100 (No damages)) | 0 (91-100 (No damages)) | 0%
COc1cc(OC)nc(Oc2cccnc2C2OCCO2)n1 [Compound No. 6] | 96% | 0 (91-100 (No damages)) | 0 (91-100 (No damages)) | 0 (91-100 (No damages)) | 0%
CCOC(=O)c1ncccc1Oc1nc(OC)cc(OC)n1 [A, reference compound] | 5% | 5 (0-5 (Death)) | 5 (0-5 (Death)) | 5 (0-5 (Death)) | 52%
